Experimental data reported in US20210386829A1, “COMPOSITIONS AND METHODS FOR MODULATING CGRP SIGNALING TO REGULATE INNATE LYMPHOID CELL INFLAMMATORY RESPONSES” (The Broad Institute, Inc., priority 2018, published 2021).

Test system: lung-resident ILCs
Experiment: SMART-Seq2 plate-based scRNA-seq of lung-resident ILCs from PBS-, IL-25- or IL-33-treated mice, differential gene expression by logistic regression (Tables 3, 4)
Format: in vivo, mouse
Source text: Mice and in vivo ILC activation. C57B1/6J mice were purchased from the Jackson Laboratory. Nmur1-LacZ reporter mice with a LacZ cassette knocked into the Nmur1 locus were rederived from Nmur1^tm1.1(KOMP)Vlcg sperm obtained from the trans-NIH Knock-Out Mouse Project (KOMP) Repository. NMU-deficient mice (NMU-KO) were rederived from B6.129S2-Nmu<tm1Mko> embryos from the RIKEN BioResource Center. For experiments with Nmur1-LacZ (Nmur1-KO) and NMU-KO mice, littermates that were either homozygous or heterozygous for the wild type allele were used as controls. Mice were housed under specific-pathogen-free conditions. For experiments, mice were matched for sex and age, and most mice were 6-10 weeks old. Where indicated, mice were anesthetized with Isoflurane and treated intranasally with the indicated stimuli (500 ng IL-25, 500 ng IL-33, or 20 μg Neuromedin U) daily for three consecutive days. The total administered volume was 20 μl for all conditions. Mice were randomly assigned to treatment groups after matching for sex and age. […] Mice were treated intranasally with 10 μg HDM on day 0, 7, 8, and 9, prior to sacrifice on day 10. All experiments were conducted in accordance with animal protocols approved by the Harvard Medical Area Standing Committee on Animals or BWH IACUC.
Fluorescence-activated cell sorting of innate lymphoid cells. After dissociation, single cell suspensions were incubated with CD90.2 MicroBeads (Miltenyi Biotec) on ice and enriched for CD90.2^+ cells by magnetic separation using LS columns according to the manufacturer's protocol. CD90.2^+ lung cells were then stained on ice with antibodies for sorting. ILCs were defined as 7AAD^− CD45^+ CD90.2^+ CD127^+ Lineage (CD11b, CD11c, CD19, NK1.1, […], CD4, CD8a, TCRβ, TCRγδ)^− cells and sorted on a BD FACS Aria (BD Biosciences).
For full-length scRNA-Seq, single ILCs were sorted into 96-well plates containing 5 ul TCL Buffer (QIAGEN) with 1% 2-Mercaptoethanol, centrifuged and frozen at −80° C. SMART-Seq2 protocol was carried out as previously described^23 with minor modifications in the reverse transcription step. cDNA was amplified with 22 cycles and fragmented with one-eighth of the standard Illumina NexteraXT reaction volume. Single-cell libraries were pooled and paired-end sequenced (38 bp×2) with a 75 cycle Nextseq 500 high output V2 kit.
Analysis of SMART-Seq2 plate-based scRNA-Seq data. Reads were aligned to mm10 using Kallisto (Bray, N. L., Pimentel, H., Meisted, P. & Pachter, L. Near-optimal probabilistic RNA-seq quantification. Nat Biotechnol 134, 525-527, doi:10.1038/nbt.3519 (2016)) quant, version 0.42.3. The R package tximport (Soneson, C., Love, M. I. & Robinson, M. D. Differential analyses for RNA-seq: transcript-level estimates improve gene-level inferences [version 2; referees: 2 approved]. F1000Research 4, doi:10.12688/f1000research.7563.2 (2016)), version 1.2.0, was used to convert the output to gene counts and traditional TPM values. Because of the variability in read counts per cell across plates, even from the same condition, as well as in the number of genes per cell across conditions, QC was performed for each of eight plates individually in order to remove cells that were outliers with respect to either measure. Out of 752 cells, 606 cells met QC criteria (234 from control, 152 from IL-25 treated mice, and 220 from IL-33 treated mice), and the number of genes per cell in this set ranged from 1,625 to 6,375. Genes that were not expressed with log(TPM)>2.5 in at least two cells were removed from further analysis. Subsequent analysis proceeded analogously to the droplet-based RNA-seq analysis, with parameter settings that reflected both the wider dynamic range of expression and much smaller cell numbers. The minimum ILC signature score required in ILC type assignment was 0.3. Variable genes were identified by running MeanVarPlot with x.low.cutoff=0.1, y.cutoff=1.5, and x.high.cutoff=10, resulting in a set of 519 genes. […]

IL33
0610031J06Rik expression coeff: 1.33
1700017B05Rik expression coeff: −1.5
1700113H08Rik expression coeff: −1.32
4632428N05Rik expression coeff: 1.58
AA467197 expression coeff: 2.99
AI593442 expression coeff: −3.15
AI836003 expression coeff: −1.26
AW112010 expression coeff: 0.998
Abtb2 expression coeff: 1.34
Acot7 expression coeff: 1.78
Adrbk1 expression coeff: 1.08
Adsl expression coeff: −0.98
Ahcyl2 expression coeff: −1.24
Amd1 expression coeff: −1.75
Anxa2 expression coeff: 1.81
Ap3d1 expression coeff: 0.94
Arf5 expression coeff: 0.972
Arhgap1 expression coeff: 1.12
Arhgap26 expression coeff: 1.3
Asl expression coeff: 1.31
Asph expression coeff: −1.56
Atp8b4 expression coeff: 1.07
Atxn7l3b expression coeff: 0.957
Bcl2a1d expression coeff: 0.97
Bcl3 expression coeff: 1.42
Bcl6 expression coeff: 1.98
Bmp2 expression coeff: −2.03
Brix1 expression coeff: −1.21
C1qbp expression coeff: −1.08
Cap1 expression coeff: 1.24
Cblb expression coeff: 0.969
Ccdc50 expression coeff: 0.948
Ccdc142 expression coeff: −1.56
Ccng1 expression coeff: 0.916
Ccr2 expression coeff: −1.11
Cd247 expression coeff: 1.52
Chdh expression coeff: 1.07
Chordc1 expression coeff: 1.09
Chst11 expression coeff: 1.25
Cirbp expression coeff: −1.67
Commd10 expression coeff: −1.3
Cox10 expression coeff: 0.894
Cpsf7 expression coeff: 1.13
Crlf2 expression coeff: 1.16
Csf1 expression coeff: −1.61
Cst7 expression coeff: 1.5
Ctla4 expression coeff: 2.65
Ctsw expression coeff: 1.07
Cybrd1 expression coeff: −1.22
Dcaf12 expression coeff: 0.975
Ddrgk1 expression coeff: −0.935
Ddx20 expression coeff: −1.92
Ddx58 expression coeff: 0.912
Dennd5a expression coeff: 0.993
Dgka expression coeff: 1.02
Dhx35 expression coeff: −1.51
Dhx37 expression coeff: −0.889
Dhx58 expression coeff: 2.39
Dkk3 expression coeff: 0.959
Dock10 expression coeff: −0.886
E030030I06Rik expression coeff: −1.01
Ecm1 expression coeff: 1.16
Endod1 expression coeff: 1.51
Epsti1 expression coeff: 1.72
Eva1b expression coeff: 1.29
Exosc4 expression coeff: −0.925
Extl3 expression coeff: −1.19
Fam118a expression coeff: −0.991
Fbxl21 expression coeff: −2.6
Ffar2 expression coeff: 1.38
Fhl2 expression coeff: −0.933
Fosb expression coeff: −0.948
Foxo3 expression coeff: 1.17
Fus expression coeff: −0.954
Gal3st3 expression coeff: −1.08
Gba expression coeff: 0.976
Gbp4 expression coeff: 0.935
Gbp6 expression coeff: 1.87
Gbp9 expression coeff: 1.12
Gga1 expression coeff: 1.33
Gigyf1 expression coeff: −0.966
Glrx expression coeff: 1.26
Gm12250 expression coeff: 3.39
Gnai2 expression coeff: 1.04
Gng2 expression coeff: 1.35
Gnl3l expression coeff: −1.25
Gp49a expression coeff: 1.62
Gpr108 expression coeff: 0.909
Grn expression coeff: 1.55
Gskip expression coeff: 1.72
Gucd1 expression coeff: 1.09
H2-T9 expression coeff: 1.1
H2-T10 expression coeff: 0.906
H2-T22 expression coeff: 1.27
Herc6 expression coeff: 1.21
Hpcal1 expression coeff: 1.26
Hsph1 expression coeff: 1.26
Idh2 expression coeff: −1.43
Ifi35 expression coeff: 0.95
Ifngr2 expression coeff: −0.881
Ifrd2 expression coeff: −1.74
Igfbp4 expression coeff: −2.3
Igsf5 expression coeff: −1.13
Il2rb expression coeff: 1.27
Il5 expression coeff: 1.34
Il13 expression coeff: 1.57
Impact expression coeff: −1.54
Inpp1 expression coeff: 1.29
Inpp4b expression coeff: −0.999
Inpp5b expression coeff: 1.22
Irf4 expression coeff: 1.58
Irf7 expression coeff: 1.43
Isg15 expression coeff: 3.16
Isg20 expression coeff: 2.26
Itgae expression coeff: 1.21
Kit expression coeff: −1.23
Krit1 expression coeff: 1.04
Lamp2 expression coeff: 0.996
Lancl1 expression coeff: −1.58
Lat2 expression coeff: 1.05
Lcmt2 expression coeff: −1.12
Lgals3bp expression coeff: 1.95
Lgals3 expression coeff: 1.4
Lilrb4 expression coeff: 2.11
Lpcat2 expression coeff: −1.56
Lsm6 expression coeff: −1.12
Lxn expression coeff: 1.29
Ly6a expression coeff: 1.67
Map2k4 expression coeff: 1.64
Marf1 expression coeff: 1.15
Med16 expression coeff: −0.941
Mfsd1 expression coeff: 1.05
Mgat1 expression coeff: 1.21
Mgat5 expression coeff: 1.08
Mier3 expression coeff: −1.41
Mkl2 expression coeff: −0.923
Mlec expression coeff: 0.999
Morc3 expression coeff: 1.05
Mov10 expression coeff: 1.45
Mplkip expression coeff: −1.13
Mrp63 expression coeff: 1.21
Mrpl40 expression coeff: −1.08
Mrpl52 expression coeff: 0.944
Mrpl53 expression coeff: −1.26
Mrps18a expression coeff: −1.11
Ms4a4b expression coeff: 2.44
Ms4a6b expression coeff: 2.02
Mtfmt expression coeff: −1.57
Mxd1 expression coeff: 1.05
Mybbp1a expression coeff: −0.978
Myg1 expression coeff: −1.26
Myo1f expression coeff: 1.04
Myo1g expression coeff: 1.31
Naa60 expression coeff: 1.11
Nbn expression coeff: −1.39
Ndufaf3 expression coeff: 1.52
Neu3 expression coeff: −1.92
Nfil3 expression coeff: 1.77
Nipal1 expression coeff: 1.74
Nlrc5 expression coeff: 1.3
Nol6 expression coeff: −1.23
Nol9 expression coeff: −1.02
Nop56 expression coeff: −1.41
Npc2 expression coeff: 1.53
Npnt expression coeff: 0.949
Nrip1 expression coeff: 1.07
Nsmaf expression coeff: 0.914
Oas1a expression coeff: 2.09
Ogfr expression coeff: 1.12
Omd expression coeff: −1.13
Parp3 expression coeff: 1.21
Parp10 expression coeff: 1.34
Parp14 expression coeff: 1.21
Paxip1 expression coeff: −0.998
Pdcd1 expression coeff: 1.35
Pde4b expression coeff: 1.24
Per1 expression coeff: −1.16
Pfas expression coeff: −1.41
Phc3 expression coeff: 0.936
Phf11a expression coeff: 1.98
Phf11b expression coeff: 1.89
Picalm expression coeff: 1
Pigv expression coeff: −1.36
Pin4 expression coeff: 1.28
Plac8 expression coeff: 1.62
Plekha5 expression coeff: −1.23
Plxdc2 expression coeff: −0.903
Pml expression coeff: 1.2
Ppif expression coeff: −1.91
Ppp1r15a expression coeff: −1.09
Pydc4 expression coeff: 1.37
Pyhin1 expression coeff: 1.04
Rab7l1 expression coeff: 2.2
Rab8b expression coeff: 1.03
Rab33b expression coeff: −1.1
Rdh1 expression coeff: −1.91
Rdh13 expression coeff: −1.75
Rilpl2 expression coeff: 1.43
Rnf125 expression coeff: 1.06
Rtp4 expression coeff: 2.55
Samd9l expression coeff: 1.2
Sbno2 expression coeff: 1.2
Sdc4 expression coeff: −0.924
Sdccag3 expression coeff: 1.08
Sema4a expression coeff: −0.903
Sema4d expression coeff: 1.28
Sesn3 expression coeff: 1.18
Shank2 expression coeff: −3.62
Sipa1 expression coeff: 1.34
Slc25a24 expression coeff: 1.33
Slc44a2 expression coeff: 1.22
Slfn2 expression coeff: 1.6
Smn1 expression coeff: −1.01
Sntb1 expression coeff: 1.19
Soat1 expression coeff: 1.07
Socs1 expression coeff: −1.32
Socs2 expression coeff: −1.33
Socs3 expression coeff: 1.44
Sp100 expression coeff: 1.07
Sptssa expression coeff: −0.952
Ssr3 expression coeff: 0.999
St3gal6 expression coeff: −1.32
Stab1 expression coeff: 1.65
Stat1 expression coeff: 1.23
Syt11 expression coeff: 0.979
Taf1d expression coeff: 1.1
Tango6 expression coeff: −2.16
Tap1 expression coeff: 1.17
Tap2 expression coeff: 1.07
Tet3 expression coeff: 1.32
Tmem33 expression coeff: 1.08
Tmem176a expression coeff: −1
Tmem176b expression coeff: −1.23
Tmem209 expression coeff: −1.27
Tmem229b expression coeff: 1.01
Tnfrsf18 expression coeff: −1.12
Tnfsf10 expression coeff: −1.88
Tpm4 expression coeff: 0.969
Tradd expression coeff: 1.29
Trafd1 expression coeff: 1.81
Trim12c expression coeff: 1.16
Trim30a expression coeff: 1.18
Trim34a expression coeff: 1.29
Trim30d expression coeff: 1.14
Trip13 expression coeff: −2.7
Trp53inp1 expression coeff: 1.16
Ttc19 expression coeff: 1.44
Ttc39b expression coeff: 1.16
Ube2h expression coeff: 1.05
Usp18 expression coeff: 1.6
Usp36 expression coeff: −1.09
Vdr expression coeff: 2.04
Vmp1 expression coeff: 1.4
Xrcc3 expression coeff: −1.02
Zbp1 expression coeff: 2.38
Zc3h12a expression coeff: −1.12
Zcchc10 expression coeff: −0.914
Zfand6 expression coeff: 1.38
Zfc3h1 expression coeff: 1.14
Zfp110 expression coeff: −1.24
Zfp825 expression coeff: −1.02
